Where a name gives a salt, the structure may show the parent alone.
Key:
[1] = system: male SPF New Zealand albino rabbits; experiment: Erectile promoting effect in vivo (erection start time and duration); parameters: species or system rabbit; conditions: oral, Examples 50 mg/kg, sildenafil citrate 20 mg/kg
Procedure: Based on the above results, the effects on erectile promotion of the compositions of Examples 6 to 9 of the present invention in vivo were measured. At this time, sildenafil citrate was used as a positive control group. Specifically, as experimental animals, six male SPF New Zealand albino rabbits (about 3.5 to 4.0 kg body weight, Samtako, Korea) per test group were used, and these rabbits were placed in cages and fed a constant amount of conventional solid feed for rabbits and water under the same condition for 4 days or more. The rabbit was fasted for 48 hours or more and then used for the test. When fasting, the rabbits were allowed to drink water freely. To the rabbit prepared as described above, the compositions of Examples 6 to 9 of the present invention were orally administered at a dose of 50 mg/kg per animal. Meanwhile, sildenafil citrate, a positive control group, was orally administered at a dose of 20 mg/kg. After administration as described above, the erection start time and duration were measured.

[2] = system: male SD rats with prostate gland hypertrophy induced by testosterone; experiment: Inhibition of prostatic hyperplasia in vivo (testosterone-induced prostate gland hypertrophy, prostate weight); conditions: testosterone 3 mg/kg/day s.c.; Examples 50 mg/kg oral, finasteride 2 mg/kg oral, 3 weeks
From the text: At this time, finasteride was used as the positive control group.
On the day of the last administration, the animals were weighed and then sacrificed, and blood was collected and the prostate glands were excised.

[3] = listed as positive control group

Compound | Erection maintenance time ([1]; listed as Control group) | Erection start time ([1]; listed as Control group) | Maximum Erection time ([1]; listed as Control group) | Erection maintenance time [1, 3] | Erection start time [1, 3] | Maximum Erection time [1, 3] | Prostate gland weight [2] | Prostate gland/body weight (%) [2]
CCCc1nn(C)c2c(=O)[nH]c(-c3cc(S(=O)(=O)N4CCN(C)CC4)ccc3OCC)nc12 [sildenafil citrate] | 120 ± 5 min | 6.2 ± 1.1 min | 19 ± 1 min | 120 min | about 6 Min. | about 19 Min. |  | 
CC(C)(C)NC(=O)[C@H]1CC[C@H]2[C@@H]3CC[C@H]4NC(=O)C=C[C@]4(C)[C@H]3CC[C@]12C [Finasteride, finasteride] |  |  |  |  |  |  | 0.92 ± 0.11 g | 0.24 ± 0.02%
